Measurements from PMC2664092 (Biochemistry, 2008).

Biological target: T1, LpxL (Escherichia coli, UniProt P0ACV0)
T1 sequence (P0ACV0 1-306): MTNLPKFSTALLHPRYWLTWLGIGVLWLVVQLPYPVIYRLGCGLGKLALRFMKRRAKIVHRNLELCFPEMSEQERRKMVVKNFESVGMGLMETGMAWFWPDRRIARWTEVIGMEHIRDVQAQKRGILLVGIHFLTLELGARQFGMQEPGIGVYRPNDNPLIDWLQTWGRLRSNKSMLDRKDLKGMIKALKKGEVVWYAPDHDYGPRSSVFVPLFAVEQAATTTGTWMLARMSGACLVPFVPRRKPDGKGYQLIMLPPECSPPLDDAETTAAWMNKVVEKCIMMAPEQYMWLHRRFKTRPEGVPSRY
Assay: […] TLC acyltransferase assay, PhosphorImager
Format: biochemical
Settings: read-out: apparent KM; 90 µM lauroyl-ACP (saturating); 0.1% Triton X-100, 0.1 mg/mL BSA, 5 mM MgCl2, 50 mM NaCl, 50 mM HEPES pH 7.5; 30 °C (standard assay); labelled compound

Molecule `CCCCCCCCCCC[C@@H](O)CC(=O)N[C@H]1[C@H](OC[C@H]2O[C@H](OP(=O)(O)O)[C@H](NC(=O)C[C@H](O)CCCCCCCCCCC)[C@@H](OC(=O)C[C@H](O)CCCCCCCCCCC)[C@@H]2O)O[C@H](CO[C@]2(C(=O)O)C[C@@H](O[C@]3(C(=O)O)C[C@@H](O)[C@@H](O)[C@@H]([C@H](O)CO)O3)[C@@H](O)[C@@H]([C@H](O)CO)O2)[C@@H](OP(=O)(O)O)[C@@H]1OC(=O)C[C@H](O)CCCCCCCCCCC` [Kdo2-lipid IVA] has a Km of 15 ± 3 µM.
